target: IRAK4 (Homo sapiens (Human), UniProt Q9NWZ3); assay: IRAK4 Inhibition Assay; format: biochemical; conditions: ATP 500 μM; IRAK4 0.6 nM; 60 min room temperature; Caliper LABCHIP 3000
Experimental: The assays were performed in U-bottom 384-well plates. The final assay volume was 30 μL prepared from 15 μL additions of enzyme and substrates (fluoresceinated peptide and ATP) and test compounds in assay buffer (20 mM HEPES pH 7.2, 10 mM MgCl2, 0.015% Brij 35 and 4 mM DTT). The reaction was initiated by the combination of IRAK4 with substrates and test compounds. The reaction mixture was incubated at room temperature for 60 min. and terminated by adding 45 μL of 35 mM EDTA to each sample. The reaction mixture was analyzed on the Caliper LABCHIP® 3000 (Caliper, Hopkinton, MA) by electrophoretic separation of the fluorescent substrate and phosphorylated product. Inhibition data were calculated by comparison to no enzyme control reactions for 100% inhibition and vehicle-only reactions for 0% inhibition. The final concentrations of reagents in the assays are ATP, 500 μM; FL-IPTSPITTTYFFFKKK peptide 1.5 μM; IRAK4, 0.6 nM; and DMSO, 1.6%.

Sequence of IRAK4 (Q9NWZ3 whole entry, species assumed): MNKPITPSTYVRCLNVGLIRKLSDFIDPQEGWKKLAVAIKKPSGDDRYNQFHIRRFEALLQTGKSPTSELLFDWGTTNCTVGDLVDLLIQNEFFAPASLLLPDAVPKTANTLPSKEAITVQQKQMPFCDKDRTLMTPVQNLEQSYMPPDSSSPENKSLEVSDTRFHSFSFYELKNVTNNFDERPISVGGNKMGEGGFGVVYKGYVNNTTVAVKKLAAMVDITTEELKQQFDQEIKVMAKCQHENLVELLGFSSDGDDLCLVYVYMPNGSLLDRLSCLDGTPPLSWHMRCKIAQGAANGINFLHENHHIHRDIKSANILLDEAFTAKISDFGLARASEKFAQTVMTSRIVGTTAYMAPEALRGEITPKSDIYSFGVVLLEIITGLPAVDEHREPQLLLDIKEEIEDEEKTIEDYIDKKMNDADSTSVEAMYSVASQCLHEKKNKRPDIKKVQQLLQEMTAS

SMILES | IC50
CC(O)CNc1c(C(=O)NC[C@@H](F)C(C)(C)O)cnc2ccc(-c3cn[nH]c3)cc12 (stereo partly drawn) [Example 30, N—((R)-2-fluoro-3-hydroxy-3-methylbutyl)-4-((2-hydroxypropyl)amino)-6-(1H-pyrazol-4-yl)quinoline-3-carboxamide] | 24.2 nM
CC(C)Nc1c(C(=O)Nc2ccc(N3CCOCC3)nc2)cnc2ccc(-c3cn[nH]c3)cc12 [Example 100, 4-(isopropylamino)-N-(6-morpholinopyridin-3-yl)-6-(1H-pyrazol-4-yl)quinoline-3-carboxamide] | 4.5 nM
CNC(=O)CCNC(=O)c1cnc2ccc(-c3cn[nH]c3)cc2c1NC(C)C [Example 48, 4-(isopropylamino)-N-(3-(methylamino)-3-oxopropyl)-6-(1H-pyrazol-4-yl)quinoline-3-carboxamide] | 30.7 nM
CC(=O)N[C@H]1CC[C@H](NC(=O)c2cnc3ccc(-c4cncc(C#N)c4)nc3c2NC(C)C)CC1 [Example 154, N-((1r,4r)-4-acetamidocyclohexyl)-6-(5-cyanopyridin-3-yl)-4-(isopropylamino)-1,5-naphthyridine-3-carboxamide] | 92.7 nM
CC(C)Nc1c(C(=O)NCCC(=O)N2CCCC2)cnc2ccc(-c3cn[nH]c3)cc12 [Example 50, 4-(isopropylamino)-N-(3-oxo-3-(pyrrolidin-1-yl)propyl)-6-(1H-pyrazol-4-yl)quinoline-3-carboxamide] | 32.7 nM
CC(C)Nc1c(C(=O)NCC(=O)N2CCOCC2)cnc2ccc(-c3cn[nH]c3)cc12 [Example 90, 4-(isopropylamino)-N-(2-morpholino-2-oxoethyl)-6-(1H-pyrazol-4-yl)quinoline-3-carboxamide] | 34.4 nM
CC(C)Nc1c(C(=O)NCCC(C)(C)O)cnc2ccc(-c3ccc(=O)[nH]c3)cc12 [Example 74, N-(3-hydroxy-3-methylbutyl)-4-(isopropylamino)-6-(6-oxo-1,6-dihydropyridin-3-yl)quinoline-3-carboxamide] | 124 nM
CC(C)(O)[C@H](F)CNC(=O)c1cnc2ccc(-c3cncs3)cc2c1NC1COC1 [Example 35, (R)—N-(2-fluoro-3-hydroxy-3-methylbutyl)-4-(oxetan-3-ylamino)-6-(thiazol-5-yl) quinoline-3-carboxamide] | 78 nM
CCNc1c(C(=O)NC[C@@H](F)C(C)(C)O)cnc2ccc(-c3cncs3)cc12 [Example 28, (R)-4-(ethylamino)-N-(2-fluoro-3-hydroxy-3-methylbutyl)-6-(thiazol-5-yl)quinoline-3-carboxamide] | 81.2 nM
CC(C)(O)CCNC(=O)c1cnc2ccc(-c3cncs3)cc2c1NC1COC1 [Example 41, N-(3-hydroxy-3-methylbutyl)-4-(oxetan-3-ylamino)-6-(thiazol-5-yl)quinoline-3-carboxamide] | 210 nM
Cc1cc(CNC(=O)c2cnc3ccc(-c4cn[nH]c4)cc3c2NC(C)C)on1 [Example 16, 4-(isopropylamino)-N-((3-methylisoxazol-5-yl)methyl)-6-(1H-pyrazol-4-yl)quinoline-3-carboxamide] | 40.2 nM
CC(C)Nc1c(C(=O)NCC2(CO)CC2)cnc2ccc(-c3cn[nH]c3)cc12 [Example 21, N-((1-(hydroxymethyl)cyclopropyl)methyl)-4-(isopropylamino)-6-(1H-pyrazol-4-yl)quinoline-3-carboxamide] | 114 nM
O=C(NCC1CCS(=O)(=O)CC1)c1cnc2ccc(-c3cn[nH]c3)cc2c1NC1CC1 [Example 116, 4-(cyclopropylamino)-N-((1,1-dioxidotetrahydro-2H-thiopyran-4-yl)methyl)-6-(1H-pyrazol-4-yl)quinoline-3-carboxamide] | 43.7 nM
CC(C)Nc1c(C(=O)NC[C@@H](F)C(C)(C)O)cnc2ccc(-c3ccncc3)cc12 [Example 2, (R)—N-(2-fluoro-3-hydroxy-3-methylbutyl)-4-(isopropylamino)-6-(pyridin-4-yl)quinoline-3-carboxamide] | 25.9 nM
CC(C)Nc1c(C(=O)NC(C)(C)C(=O)N2CCOCC2)cnc2ccc(-c3cn[nH]c3)cc12 [Example 91, 4-(isopropylamino)-N-(2-methyl-1-morpholino-1-oxopropan-2-yl)-6-(1H-pyrazol-4-yl) quinoline-3-carboxamide] | 1810 nM
CC(C)Nc1c(C(=O)NCCN2CCCCC2=O)cnc2ccc(-c3cn[nH]c3)cc12 [Example 86, 4-(isopropylamino)-N-(2-(2-oxopiperidin-1-yl)ethyl)-6-(1H-pyrazol-4-yl)quinoline-3-carboxamide] | 28.6 nM
CC(C)Nc1c(C(=O)NCCC2CCCN2C(=O)C2CC2)cnc2ccc(-c3cn[nH]c3)cc12 (stereo not shown) [Example 93, N-(2-(1-(cyclopropanecarbonyl)pyrrolidin-2-yl)ethyl)-4-(isopropylamino)-6-(1H-pyrazol-4-yl)quinoline-3-carboxamide] | 29.3 nM

SMILES | IC50
O=C(NCCN1CCOCC1)c1cnc2ccc(-c3cn[nH]c3)cc2c1NCC(F)F [Example 63, 4-((2,2-difluoroethyl)amino)-N-(2-morpholinoethyl)-6-(1H-pyrazol-4-yl)quinoline-3-carboxamide] | 34.4 nM
CC(C)(O)[C@H](F)CNC(=O)c1cnc2ccc(-c3cn[nH]c3)cc2c1Nc1cnn(CC(F)F)c1 [Example 33, (R)-4-((1-(2,2-difluoroethyl)-1H-pyrazol-4-yl)amino)-N-(2-fluoro-3-hydroxy-3-methylbutyl)-6-(1H-pyrazol-4-yl)quinoline-3-carboxamide] | 157 nM
Cc1cc(-c2ccc3ncc(C(=O)NCCC(C)(C)O)c(NC(C)C)c3c2)cnc1F [Example 71, 6-(6-fluoro-5-methylpyridin-3-yl)-N-(3-hydroxy-3-methylbutyl)-4-(isopropylamino)quinoline-3-carboxamide] | 307 nM
CC(C)Nc1c(C(=O)NCCc2ncno2)cnc2ccc(-c3cn[nH]c3)cc12 [Example 106, N-(2-(1,2,4-oxadiazol-5-yl)ethyl)-4-(isopropylamino)-6-(1H-pyrazol-4-yl)quinoline-3-carboxamide] | 118 nM
CCNc1c(C(=O)NCCC(C)(C)O)cnc2ccc(-c3cn[nH]c3)cc12 [Example 38, 4-(ethylamino)-N-(3-hydroxy-3-methylbutyl)-6-(1H-pyrazol-4-yl)quinoline-3-carboxamide] | 49.2 nM
O=C(NCCC(F)(F)F)c1cnc2ccc(-c3cn[nH]c3)cc2c1NCC(F)F [Example 68, 4-((2,2-difluoroethyl)amino)-6-(1H-pyrazol-4-yl)-N-(3,3,3-trifluoropropyl)quinoline-3-carboxamide] | 35.1 nM
CC(C)CCc1nc(-c2cnc3ccc(-c4cn[nH]c4)cc3c2NC(C)C)n[nH]1 [Example 126, 3-(5-isopentyl-1H-1,2,4-triazol-3-yl)-N-isopropyl-6-(1H-pyrazol-4-yl)quinolin-4-amine] | 34.4 nM
CC(C)Nc1c(C(=O)NCCC(=O)N(C)C)cnc2ccc(-c3cn[nH]c3)cc12 [Example 49, N-(3-(dimethylamino)-3-oxopropyl)-4-(isopropylamino)-6-(1H-pyrazol-4-yl)quinoline-3-carboxamide] | 29.8 nM
CC(C)Nc1c(C(=O)NC2CN(S(C)(=O)=O)C2)cnc2ccc(-c3cn[nH]c3)cc12 [Example 92, 4-(isopropylamino)-N-(1-(methylsulfonyl)azetidin-3-yl)-6-(1H-pyrazol-4-yl)quinoline-3-carboxamide] | 32.2 nM
CC(C)Nc1c(C(=O)NC[C@@H](F)C(C)(C)O)cnc2ncc(-c3cn[nH]c3)cc12 [Example 161, (R)—N-(2-fluoro-3-hydroxy-3-methylbutyl)-4-(isopropylamino)-6-(1H-pyrazol-4-yl)-1,8-naphthyridine-3-carboxamide] | 1210 nM
COCCNC(=O)c1cnc2ccc(-c3cn[nH]c3)cc2c1NC(C)C [Example 18, 4-(isopropylamino)-N-(2-methoxyethyl)-6-(1H-pyrazol-4-yl)quinoline-3-carboxamide] | 28 nM
CC(C)Nc1c(C(=O)NCCC2CC2)cnc2ccc(-c3ccnc(C#N)c3)nc12 [Example 157, 6-(2-cyanopyridin-4-yl)-N-(2-cyclopropylethyl)-4-(isopropylamino)-1,5-naphthyridine-3-carboxamide] | 280 nM
CC(C)Nc1c(C(=O)NC2CCOCC2)cnc2ccc(-c3cn[nH]c3)cc12 [Example 9, 4-(isopropylamino)-6-(1H-pyrazol-4-yl)-N-(tetrahydro-2H-pyran-4-yl)quinoline-3-carboxamide] | 23.3 nM
CC(C)Nc1c(C(=O)NCCC2CC2)cnc2ccc(Nc3cncc(F)c3)nc12 [Example 147, N-(2-cyclopropylethyl)-6-((5-fluoropyridin-3-yl)amino)-4-(isopropylamino)-1,5-naphthyridine-3-carboxamide] | 900 nM
O=C(NCCC1CC1)c1cnc2ccc(-c3cn[nH]c3)cc2c1NC1CC(F)(F)C1 [Example 56, N-(2-cyclopropylethyl)-4-((3,3-difluorocyclobutyl)amino)-6-(1H-pyrazol-4-yl)quinoline-3-carboxamide] | 19.7 nM
CC(O)CCNC(=O)c1cnc2ccc(-c3cn[nH]c3)cc2c1NC1CC(F)(F)C1 (stereo not shown) [Example 53, 4-((3,3-difluorocyclobutyl)amino)-N-(3-hydroxybutyl)-6-(1H-pyrazol-4-yl)quinoline-3-carboxamide] | 32.6 nM
CC(C)Nc1c(C(=O)NC(CCO)C2CC2)cnc2ccc(-c3cn[nH]c3)cc12 (stereo not shown) [Example 12, N-(1-cyclopropyl-3-hydroxypropyl)-4-(isopropylamino)-6-(1H-pyrazol-4-yl)quinoline-3-carboxamide] | 295 nM

— US12492186B2, “Bicyclic heterocyclic compounds useful as IRAK4 inhibitors” (BRISTOL-MYERS SQUIBB COMPANY, priority 2019, dated 2025)
